Data published in a melting point compilation (Tetko et al.; mined from patent text by program, amines drawn as free bases though some values may be those of a salt).

| Structure (SMILES) | melting point [°C] |
| --- | --- |
| Fc1cc(CC2(Cc3ccnc(F)c3)c3ccccc3-c3ncncc32)ccn1 | 171 to 174 |
| CCN(CC)C(=O)c1c(CO)ccc(F)c1[Si](C)(C)C | 107 to 108 |
| CSc1nc2ccc(C(F)(F)F)cc2[nH]1 | 145 to 146 |
| CNC(=O)N1CCc2[nH]cnc2C1C1CCCCC1 (stereo unspecified) | 250 |
| Nc1ccn(C2CCCO2)c(=O)n1 (stereo unspecified) | 193 to 195 |
| O=C(Oc1cc(-c2ccccc2)nc2ccccc12)N1CCOCC1 | 127 |
| N[C@@H](Cc1ccccc1C(F)(F)F)[C@H](O)c1ccc(F)cc1 (racemic) | 57 to 58 |
| CCCNC(=O)COC1C(O)C(CO)OC(Oc2ccc(N)cc2)C1O (stereo unspecified) | 154 |
| CN1C(=O)C2(C(=O)N(Cc3ccccn3)c3ccccc32)c2cc3c(cc21)OCCO3 (stereo unspecified) | 87 to 89 |
| CS(=O)(=O)N1CCN(c2cc3ccccc3c(=O)[nH]2)CC1 | 257 to 259 |
| Fc1ccc(C(c2ccc(Cl)cc2Cl)C(F)n2cncn2)cc1 (stereo unspecified) | 96 to 104 |
| O=C(CCc1ccccc1)N[C@H]1C[C@H](C(=O)O)Nc2cc(Cl)cc(Cl)c21 (relative stereo) | 188 |
| CCCCN(C)CCOc1ccc(-n2c(-c3ccc(O)cc3)c(C)c3cc(O)ccc32)cc1 | 102 to 107 |
| CCCc1c(OCc2ccccc2)ccc2c(=O)cc(CO)[nH]c12 | 197 to 199 |
| Cc1nc(-c2ccc(C(=O)N3Cc4cccn4Cc4ccccc43)cc2)n(C)n1 | 193 to 195 |
| O[C@@H]1CNCC[C@H]1NCc1ccccc1 (relative stereo) | 136 |
| C[C@H](O)C(=O)Nc1c(C(=O)c2ccccc2)[nH]c2cc(Cl)ccc12 | 185 to 190 |
| CCCc1c(C(=O)C2CCCCC2)c2ccc(C(N)=O)cc2n1Cc1cc2c(cc1Cl)OCO2 | 209 to 211 |
| CCOC(=O)c1nc(-c2cccc3ccccc23)no1 | 68 to 70 |
| COC(=O)C1=C(CCc2ccccc2OC)NC(CC(=O)N2CCN(CC(=O)NC(C)C)CC2)=C(C(=O)OC)C1c1c(Cl)cccc1Cl (stereo unspecified) | 161 to 163 |
| COc1cc(C(=O)CS(=O)(=O)c2ccccc2)ccc1Cc1cn(C)c2ccc(NC(=O)NC3CCCC3)cc12 | 203 to 206 |
| Cn1ncc(C(=O)N2CCC2)c1C(=O)Nc1ccn2nc(-c3ccnc(F)c3)nc2c1 | > 280 |

| Structure (SMILES) | melting point [°C] |
| --- | --- |
| c1ccc2c(c1)Oc1ccncc1O2 | 102 to 108 |
| CCOC(=O)Cn1c2c(c3c(Cl)c(Cl)ccc31)CCN(C(=O)OC(C)(C)C)CC2 | 136 to 138 |
| CC(C)c1ccc(S(=O)(=O)Nc2ccc(N3CCC(NCC(O)COc4ccc(O)cc4)CC3)nc2)cc1 (stereo unspecified) | 75 to 78 |
| COC1=C(OC)C(=O)c2c(cccc2[N+](=O)[O-])C1=O | 156 to 157 |
| CCCC(NS(=O)(=O)c1ccc(Cl)cc1)C(=O)Nc1ccc(CC(=O)O)cc1 (racemic) | 202 to 204 |
| O=C(NCCc1ccc(F)cc1)OCc1ccccc1 | 51 to 52 |
| Cc1cc(-n2ccnc2)c2cccc(OCc3c(Cl)ccc(S(=O)(=O)N4CCC[C@H]4C(=O)NCCCNC(=O)c4ccc(C#N)cc4)c3Cl)c2n1 | 118 |
| COc1cc(/C=C2/C(=O)N(C)C(=O)/C2=C/c2ccccc2)cc(OC)c1OC | 131 to 133 |
| CS(=O)(=O)c1nc2c(F)cccc2s1 | 160 |
| COc1cc2c(Nc3cccc(Br)c3)c(C#N)cnc2c(OC)c1OC | 211 to 213 |
| CCCCCCCC(=O)NNC(=O)N1Cc2ccccc2Oc2ccc(C(F)(F)F)cc21 | 97 to 100 |
| COc1cccc2c(Nc3ccccc3C)nc(N3CCCC3)nc12 | 181 to 183 |
| CC(C)(C)OC(=O)N[C@@H](Cc1ccc(Cc2ccccc2)cc1)C(=O)O | 103 to 107 |
| CC(C)Cc1cccc(CCCn2c(=O)[nH]c3cc(Cl)cc(Cl)c3c2=O)c1 | 167 to 172 |
| COCCOc1nn2c(-c3ccc(OC)cc3)nnc2c2ccccc12 | 174 to 176 |
| N#Cc1cnc(N)nc1-c1ccccc1 | 147 |
| CC1(C)COC(=O)N1c1nc(-c2sc(C#N)cc2Br)cs1 | 230 to 234 |
| CCOC(=O)Cc1ccc(SCc2ccc(NC(C)=O)cc2C(=O)O)cc1 | 170 |
| CCOC(=O)N(N=C[N+](=O)[O-])c1ccc(C(=O)OC)c(S(=O)(=O)NC(C)(C)C)c1 | 142 to 145 |
| COc1cccc(Oc2nccc(-c3c(-c4ccc(F)cc4)ncn3C3CCNCC3)n2)c1 | 117 to 118 |
| CCOc1ccc2[nH]c(=O)n(C3CCOCC3)c2c1 | 155 |
| Cc1nnc2n1-c1sc(CC(=O)N3CCOCC3)cc1C(c1ccccc1Cl)=NC2C (stereo unspecified) | 126 to 129 |

| Structure (SMILES) | melting point [°C] |
| --- | --- |
| O=C(Oc1ccccc1)N1CC[C@@H](c2ccc(F)cc2)[C@H](CO)C1 (relative stereo) | 129 to 131 |
| COc1cc2c(c3c1OC(C)(C)C3)C(c1ccc(NC(=O)c3cccnc3)cc1)=NC(C)(C)C2 | 130 to 137 |
| CCCCCCCCCCCCCCCCOc1ccccc1-c1ccccc1 | 35 to 37 |
| COc1ccc(/C(=C\C=C\C(=O)NCCCCc2cccnc2)c2cccnc2)cc1 | 108 to 110 |
| Cc1c(C=CCN2CCOCC2)[nH]c(=O)c2c1ccc1nc(Nc3c(Cl)cccc3Cl)n(C)c12 | 175 to 177 |
| Cc1c[nH]c2ccc(Nc3ncnc4cc(-c5ccccc5)sc34)cc12 | 221 to 223 |
| O=C(Oc1ccccc1)N1CCCc2nc3ccccc3c(Cl)c2C1 | 137 |
| CCCCC1=N/C(=C\c2c[nH]c3ncccc23)C(=O)N1C | 220 to 222 |
| CCOC(=O)[C@@H](N)Cc1ccc([N+](=O)[O-])cc1I | 33 to 34 |
| CCC1(CCSC(C)=O)C(=O)N2CCCC(C(=O)O)N2C1=O (stereo unspecified) | 110 to 111 |
| CC1C(=O)N(c2ccc(Oc3ccccc3)cc2)C(=S)N1c1ccccc1 (stereo unspecified) | 132 |
| O=C(O)[C@@H]1C[C@@H](SC(c2ccccc2)(c2ccccc2)c2ccccc2)CN1S(=O)(=O)c1ccc2ccccc2c1 | 64 to 69 |
| Brc1cncc2ncc(Br)n12 | 150 |
| CCOC(=O)Cc1cccc(OCc2ccc3oc([N+](=O)[O-])c(-c4ccccc4)c3c2)c1 | 67 to 68 |
| O=C1c2c(Cl)cccc2-n2cnc(-c3noc(CN(C4CCCCC4)C4CCCCC4)n3)c2[C@@H]2CCN12 | 155 to 185 |
| CC(=O)C1CCC2C3CCC4CC(O)C(N5CCSC(C)(C)C5)CC4(C)C3C(=O)CC12C (stereo unspecified) | 202 to 203 |
| CC1=C(C(=O)OCC2COc3ccccc3O2)C(c2c(F)c(F)c(F)c(F)c2F)C2=C(CNCC2=O)N1 (stereo unspecified) | 167 to 170 |
| CON(Cc1ccc(NC(C)=O)cc1)C(=O)C1=C(O)C(=O)N(C)C1 | 110 |
| OC[C@H]1CCCN1c1cc(N2CCc3ccccc3C2)c2ccccc2n1 | 74 to 80 |
| COC(=O)C1=C(C)NC(C)=C(C(=O)OC(C)C)C1c1cc([N+](=O)[O-])ccc1Cl (stereo unspecified) | 163 |

Continued, values first:

| melting point [°C] | Structure (SMILES) |
| --- | --- |
| 128 to 130 | CC(C)(C)OC(=O)NC1COCCCC=CC2CC2(C(=O)NS(=O)(=O)C2CC2)NC(=O)C2CC(OC(=O)N3CCc4ccccc43)CN2C1=O (stereo unspecified) |
| 91 to 93 | COC(=O)CC/C(C)=C/Cc1c(N)c2c(c(C)c1OC)COC2=O |
| 181 to 184 | FC(F)(F)c1cccc(-c2cnnn2-c2cc(Cl)ccc2OCc2nnn[nH]2)c1 |
| 98 to 99.5 | C[C@@H](Oc1ccc(-c2ccccc2)cc1)[C@H](O)CCc1cccnc1 |
| 104 to 105 | COc1cc2ncnc(N3CCN(C(=S)NCc4ccc(C(C)(C)C)cc4)CC3)c2cc1OC |
| 251 to 252 | COc1ccc(-n2c(=O)c(C)nc3cccnc32)cc1 |
| 153 to 154 | COc1ccc(NC2=NN(c3ccccc3)CC2)cc1 |
| 145 | Cn1nnc2ccc(C(O)c3ccccc3)cc21 (stereo unspecified) |
| 228 to 231 | COc1ccc(C(=O)Nc2ccc(F)c(F)c2)cc1NS(=O)(=O)c1cc(Cl)cc(Cl)c1 |
| 83 to 86 | O=C(Cc1ccccc1)c1cc(Br)ccc1O |
| 62 to 63 | C#CC[C@H]1C(=O)O[C@@H]1C[C@@H](CCCCCCCCCCCCCCCCC)O[Si](C)(C)C(C)(C)C |
| 168 to 169 | Cc1nccn1C(C)CC(O)(c1ccccc1)c1ccccc1 (stereo unspecified) |
| 136 to 137 | COC(=O)CC[C@H]1C(=O)N(c2ccc(F)cc2)[C@@H]1c1ccc(O)cc1 |
| 92 to 93 | OCc1csc(-c2ccccc2)c1 |
| 87 to 88 | OCc1cnn(-c2c(Cl)cc(C(F)(F)F)cc2Cl)n1 |
| 123 to 124 | COC(=O)C(N)Cc1ccc(Oc2ccc(O)cc2)cc1 (stereo unspecified) |

| melting point [°C] | Structure (SMILES) |
| --- | --- |
| 174 to 176 | Cc1cccc(NC(=O)NC2CN(C(=O)C(C)C)c3ccccc3N(CC(=O)c3ccccc3C)C2=O)c1 (stereo unspecified) |
| 161 to 162 | CCOC(=O)C(=O)Nc1coc2ccc(Cl)cc2c1=O |
| 153 to 155 | CONC(=O)NC1(c2ccc(C(C)C)cc2OC)C(=O)c2ccccc2C1=O |
| 225 to 228 | O=CNCc1ncc(-c2ccccc2)o1 |
| 160 to 162 | COC(=O)CCc1ccc(N2CCN(c3ccc(C#N)cc3)C2=O)cc1 |
| 150 to 152 | CSC(Nc1cc(C(F)(F)F)cc(C(F)(F)F)c1)=C(C#N)S(=O)(=O)c1ccc(Cl)cc1 |
| 33 to 35 | CCCSc1ccc(C(=O)OC)nc1 |
| 82 to 83 | O=C(CCCCCCOc1ccc(OCc2ccccc2)cc1)C(F)(F)F |
| 197 to 199 | O=C(Nc1ccccc1Cl)Nc1nc(=O)n(CC2CC2)cc1F |
| 88 to 90 | CN(C)CCCn1c(-c2ccc(Br)cc2)cc2c1CCSC2 |
| 130 | CC(=O)O[C@H]1CC[C@H]2[C@@H]3CCc4cc(O)ccc4[C@H]3[C@@H](CCCCCCCCCS(=O)(=O)CCCC(F)(F)C(F)(F)F)C[C@]12C |
| 112 to 113 | CCOC(=NC(=O)c1ccc(C(F)(F)F)cc1)N1Cc2ccccc2-c2ccccc2C1 |
| 93 to 94 | CON=C(C)C(C)=NOc1ccccc1C(=NOC)C(=O)OC |
| 60 | C=CC(C)(C)C1=C(O)C(=O)c2ccccc2C1=O |
| 67 to 69 | CC(=O)Oc1c(Cc2ccccc2)ccc2ccccc12 |
| 93 to 95 | c1cc2c(cn1)ncn2CCCCc1nnnn1C1CCCCC1 |
